Experimental data reported in patent US10730889B2, “Amido spirocyclic amide and sulfonamide derivatives” (Forma TM, LLC, priority 2012, dated 2020).

What follows are compounds tested on A2780 cells (assay: In-vitro cell proliferation assay (SRB, 72 hours)). Conditions: Homo sapiens, A2780, 72 h, A2780 cells, 72 hours, SRB; read-out: Cell Proliferation (IC50).
Type: cell-based

In order of rising IC50:
1. Cc1nn(-c2ccc(F)cc2)c(C)c1C(=O)N1CCC2(CC1)CC2CNC(=O)c1cc2ccncc2o1 (stereo not shown) [Example 223, N-[[6-[1-(4-fluorophenyl)-3,5-dimethyl-pyrazole-4-carbonyl]-6-azaspiro[2.5]octan-2-yl]methyl]furo[2,3-c]pyridine-2-carboxamide]  1.92 nM
2. O=C(NCC1CC12CCN(C(=O)c1ccc(CN3CCCC3)cc1)CC2)c1cc2ccncc2o1 (stereo not shown) [Example 248, N-[[6-[4-(pyrrolidin-1-ylmethyl)benzoyl]-6-azaspiro[2.5]octan-2-yl]methyl]furo[2,3-c]pyridine-2-carboxamide]  4.39 nM
3. CCn1nc(C)c(C(=O)N2CCC3(CC2)CC3CNC(=O)c2cc3c(o2)C=NCC3)c1C (stereo not shown) [Example 222, N-[[6-(1-isopropyl-3,5-dimethyl-pyrazole-4-carbonyl)-6-azaspiro[2.5]octan-2-y]methyl]furo[2,3-c]pyridine-2-carboxamide]  11.7 nM
4. O=C(NCC1CC12CCN(C(=O)c1ccc(CN3CCOCC3)cc1)CC2)c1cc2ccncc2o1 (stereo not shown) [Example 245, N-[[6-[4-(morpholinomcthyl)benzoyl]-6-azaspiro[2.5]octan-2-yl]methyl]furo[2,3-c]pyridine-2-carboxamide]  12.6 nM
5. Cc1nccn1Cc1ccc(C(=O)N2CCC3(CC2)CC3CNC(=O)c2cc3ccncc3o2)cc1 (stereo not shown) [Example 246, N-[[6-[4-[(2-methylimidazol-1-yl)methyl]benzoyl]-6-azaspiro[2.5]octan-2-yl]methyl]furo[2,3-c]pyridine-2-carboxamide]  13.8 nM
6. O=C(CCN1CCOCC1)N1CCC2(CC1)CC2CNC(=O)N1Cc2ccncc2C1 (stereo not shown) [Example 229, N-[[6-(3-morpholinopropanoyl)-6-azaspiro[2.5]octan-2-yl)methyl]-1,3-dihydropyrrolo[3,4-c]pyridine-2-carboxamide]  18.4 nM
7. O=C(NCC1CC12CCN(C(=O)c1cccc3[nH]ncc13)CC2)c1cc2ccncc2o1 (stereo not shown) [Example 240, N-[[6-(1H-indazole-4-carbonyl)-6-azaspiro[2.5]octan-2-yl]methyl]furo[2,3-c]pyridine-2-carboxamide]  18.7 nM
8. Cn1cc(C(=O)N2CCC3(CC2)CC3CNC(=O)N2Cc3ccncc3C2)cn1 (stereo not shown) [Example 221, N-[[6-(1-methylpyrazole-4-carbonyl)-6-azaspiro[2.5]octan-2-yl]methyl]-1,3-dihydropyrrolo[3,4-c]pyridine-2-carboxamide]  25.4 nM
9. O=C(NCC1CC12CCN(C(=O)c1ccnc3[nH]ccc13)CC2)c1cc2ccncc2o1 (stereo not shown) [Example 239, N-[[6-(1H-pyrrolo[2,3-b]pyridine-4-carbonyl)-6-azaspiro[2.5]octan-2-yl]methyl]furo[2,3-c]pyridine-2-carboxamide]  29.7 nM
10. O=C(NCC1CC12CCN(C(=O)C(F)(F)c1ccccc1)CC2)N1Cc2ccncc2C1 (stereo not shown) [Example 230, N-[[6-(2,2-difluoro-2-phenyl-acetyl)-6-azaspiro[2.5]octan-2-yl]methyl]-1,3-dihydropyrrolo[3,4-c]pyridine-2-carboxamide]  29.9 nM
11. O=C(NCC1CC12CCN(C(=O)c1cccc3[nH]cnc13)CC2)c1cc2ccncc2o1 (stereo not shown) [Example 236, N-[[6-(1H-benzimidazole-4-carbonyl)-6-azaspiro[2.5]octan-2-yl]methyl]furo[2,3-c]pyridine-2-carboxamide]  47.3 nM
12. CC(C)(CO)OC(=O)N1CCC2(CC1)CC2CNC(=O)c1cc2ccncc2o1 (stereo not shown) [Example 215, (2-hydroxy-1,1-dimethyl-ethyl) 2-[(furo[2,3-c]pyridine-2-carbonylamino)methyl]-6-azaspiro[2.5]octane-6-carboxylate]  65.8 nM
13. O=C(NCC1CC12CCN(C(=O)c1ccc3[nH]cnc3c1)CC2)c1cc2ccncc2o1 (stereo not shown) [Example 241, N-[[6-(1H-benzimidazole-5-carbonyl)-6-azaspiro[2.5]octan-2-yl]methyl]furo[2,3-c]pyridine-2-carboxamide]  70.2 nM
14. O=C(NCC1CC12CCN(C(=O)c1cc3cccn3cn1)CC2)c1cc2ccncc2o1 (stereo not shown) [Example 237, N-[[6-(pyrrolo[1,2-c]pyrimidine-3-carbonyl)-6-azaspiro[2.5]octan-2-yl]methyl]furo[2,3-c]pyridine-2-carboxamide]  166 nM
15. Cc1cnccc1C(=O)N1CCC2(CC1)CC2CNC(=O)c1cc2ccncc2o1 (stereo not shown) [Example 232, N-[[6-(3-methylpyridine-4-carbonyl)-6-azaspiro[2.5]octan-2-yl]methyl]furo[2,3-c]pyridine-2-carboxamide]  207 nM
16. Cc1ccc(C(=O)N2CCC3(CC2)CC3CNC(=O)c2cc3ccncc3o2)cn1 (stereo not shown) [Example 233, N-[[6-(6-methylpyridine-3-carbonyl)-6-azaspiro[2.5]octan-2-yl]methyl]furo[2,3-c]pyridine-2-carboxamide]  288 nM
17. N#Cc1cccc(C(=O)N2CCC3(CC2)CC3CNC(=O)c2cc3ccncc3o2)c1 (stereo not shown) [Example 243, N-[[6-(3-cyanobenzoyl)-6-azaspiro[2.5]octan-2-yl]methyl]furo[2,3-c]pyridine-2-carboxamide]  434 nM
18. Cc1cccnc1C(=O)N1CCC2(CC1)CC2CNC(=O)c1cc2ccncc2o1 (stereo not shown) [Example 231, N-[[6-(3-methylpyridine-2-carbonyl)-6-azaspiro[2.5]octan-2-yl]methyl]furo[2,3-c]pyridine-2-carboxamide]  516 nM
19. N#Cc1ccc(C(=O)N2CCC3(CC2)CC3CNC(=O)c2cc3ccncc3o2)cc1 (stereo not shown) [Example 242, N-[[6-(4-cyanobenzoyl)-6-azaspiro[2.5]octan-2-yl]methyl]furo[2,3-c]pyridine-2-carboxamide]  713 nM
20. O=C(NCC1CC12CCN(C(=O)c1ccc3[nH]nnc3c1)CC2)c1cc2ccncc2o1 (stereo not shown) [Example 238, N-[[6-(1H-benzotriazole-5-carbonyl)-6-azaspiro[2.5]octan-2-yl]methyl]furo[2,3-c]pyridine-2-carboxamide]  910 nM
21. O=C(NCC1CC12CCN(C(=O)c1cccc(Cn3cncn3)c1)CC2)c1cc2ccncc2o1 (stereo not shown) [Example 249, N-[[6-[3-(1,2,4-triazol-1-ylmethyl)benzoyl]-6-azaspiro[2.5]octan-2-yl]methyl]furo[2,3-c]pyridine-2-carboxamide]  935 nM
22. N#Cc1ccc(CC(=O)N2CCC3(CC2)CC3CNC(=O)c2cc3cnccc3[nH]2)cc1 (stereo not shown) [Example 216, N-[[6-[2-(4-cyanophenyl)acetyl]-6-azaspiro[2.5]octan-2-yl]methyl]-1H-pyrrolo[3,2-c]pyridine-2-carboxamide]  1340 nM
23. Cc1ccnc(C(=O)N2CCC3(CC2)CC3CNC(=O)c2cc3ccncc3o2)c1 (stereo not shown) [Example 235, N-[[6-(4-methylpyridine-2-carbonyl)-6-azaspiro[2.5]octan-2-yl]methyl]furo[2,3-c]pyridine-2-carboxamide]  1560 nM
24. O=C(NCC1CC12CCN(C(=O)c1ccc(OC(F)(F)F)cc1)CC2)c1cc2ccncc2o1 (stereo not shown) [Example 247, N-[[6-[4-(trifluoromethoxy)benzoyl]-6-azaspiro[2.5]octan-2-yl]methyl]furo[2,3-c]pyridine-2-carboxamide]  2000 nM

Same assay, conditions: Homo sapiens, A2780, 72 h, read-out: Cell Proliferation (IC50)

Compound `CC1(OC(=O)N2CCC3(CC2)CC3CNC(=O)N2Cc3ccncc3C2)CCC1` (stereo not shown) [Example 228, (1-methylcyclobutyl) 2-[(1,3-dihydropyrrolo[3,4-c]pyridine-2-carbonylamino)methyl]-6-azaspiro[2.5]octane-6-carboxylate] has an IC50 of 4.74 nM.
